Experiments:
[1] = system: whole blood, erythrocytes or blood plasma; test: method of the invention: hydrolysis, then lysis by free radicals; type: cell-based; settings: with hydrolysis according to the invention
Protocol: (§1) Sulfated ferulic acid (I) consequently comprises a double antiradical reserve which is usable by hydrolysis. The antiradical activity of these products was determined according to the prior KRL test without hydrolysis, on the one hand, and according to the invention after hydrolysis, on the other hand. The results obtained are set out in Table I which illustrates the value of hydrolysis according to the invention. [drawing 5]
The method of the invention has been standardised for use with whole blood, erythrocytes or blood plasma as the second cellular material. […] The T½ value and the other parameters stated above are then determined. […]
The sample to be tested (50 μl), which contains or is associated with whole blood, with erythrocytes or, respectively, with plasma and if necessary is diluted, is introduced into the dilution solution (220 μl) placed in the wells of a microplate. Hydrolysis is performed, the free radical generator is introduced, release of the free radicals is initiated and the T½ value and said other parameters are determined according to the methods stated above.
In practice, it is recommended to use the following quantities of enzymes, where U denotes the international unit of the enzyme in question: • β-glucosidase at a final concentration of 11.11 U/ml (3 U/well), • sulfatase at a final concentration of 3 U/ml (0.8 U/well), and/or • β-glucuronidase at a final concentration of 2222.22 U/ml (600 U/well). Other advantages and characteristics of the invention will be better understood on reading the Examples and tests stated hereafter. […]

control whole blood = test: prior KRL test without hydrolysis: lysis by free radicals; type: cell-based
Protocol: This known method has been standardised using whole human or animal blood, which is diluted, instead of the above-stated erythrocytes isolated from whole blood. The standardised method has been successfully marketed under the name “KRL Test” (kit radicaux libres [=free radical kit]) in particular for determining (i) the antiradical defence capacity of a human, animal or plant cellular tissue, or (ii) the possible antiradical properties of a physical, chemical or biological agent. More specifically, the KRL test is performed by 1) bringing (a) previously diluted control whole blood into contact in an appropriate buffer medium with (b) an agent to be tested (in particular a cellular material, a substance or a composition) and (c) a free radical generator, 2) inducing release of the free radicals, 3) monitoring the lysis kinetics of the erythrocytes from the control whole blood by measuring the absorbance of the reaction medium, then 4) comparing said latter value with that of control whole blood determined under the same conditions without the agent to be tested.
as §1

| Structure (SMILES) | Antiradical activity relative to ferulic acid, with hydrolysis [1] | Antiradical activity relative to ferulic acid, without hydrolysis (control whole blood) |
| --- | --- | --- |
| COc1cc(/C=C/C(=O)O)ccc1O [trans-ferulic acid (II), trans-ferulic acid] | 2.05 | 1.00 |
| O=C(O)/C=C/c1ccc(O)c(O)c1 [trans-caffeic acid (III), trans-caffeic acid] | 2.06 | 2.06 |
| COc1cc(/C=C/C(=O)O)ccc1OS(=O)(=O)O [sulfated ferulic acid (I), sulfated ferulic acid] | 2.06 | 0.01 |

Source: patent US20060234329A1, “Method for determining the antiradical defense potential and use thereof, in particular in veterinary and human preventive therapeutics” (priority 2003, published 2006)
